# Reference: patent US10874743B2, “IRAK degraders and uses thereof” (Kymera Therapeutics, Inc., priority 2017, dated 2020)
# Target: T1, IRAK4 (Homo sapiens, UniProt Q9NWZ3)
# T1 sequence (Q9NWZ3 1-460): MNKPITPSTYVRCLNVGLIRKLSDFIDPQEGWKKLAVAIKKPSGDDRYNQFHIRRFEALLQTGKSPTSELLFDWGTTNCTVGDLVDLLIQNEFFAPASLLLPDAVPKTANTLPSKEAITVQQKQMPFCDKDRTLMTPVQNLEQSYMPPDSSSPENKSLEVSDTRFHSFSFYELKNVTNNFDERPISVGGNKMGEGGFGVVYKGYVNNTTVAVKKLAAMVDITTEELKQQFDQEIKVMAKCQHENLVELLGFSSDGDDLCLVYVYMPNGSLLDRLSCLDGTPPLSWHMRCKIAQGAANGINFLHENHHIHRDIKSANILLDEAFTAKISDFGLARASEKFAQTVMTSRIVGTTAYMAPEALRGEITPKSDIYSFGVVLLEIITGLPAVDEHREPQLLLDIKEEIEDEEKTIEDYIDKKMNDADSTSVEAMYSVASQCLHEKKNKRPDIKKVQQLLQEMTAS
# Assay: OCI-LY-10 degradation assay (western blot, % IRAK4 degraded after 4 hours)
# Format: cell-based
# Design: endogenous in cells; host or cells: OCI-LY10
# Conditions: OCI-LY10 cells; for OCI-LY10 % IRAK4 Degradation: IRAK4 degraded after 4 hours, western blot; for OCI-LY10 % IRAK4 Degradation (0.01 uM) / OCI-LY10 % IRAK4 Degradation (0.1 uM) / OCI-LY10 % IRAK4 Degradation (1 uM): 4 hours; for OCI-LY10 % IRAK4 Degradation (0.01 uM): 0.01 uM compound; for OCI-LY10 % IRAK4 Degradation (0.1 uM): 0.1 uM compound; for OCI-LY10 % IRAK4 Degradation (1 uM): 1 uM compound
# Protocol: Compounds were reconstituted in DMSO to make stock solutions at concentration of 60 mM. THP-1 and OCI-LY10 cells were maintained in RPMI-1640 medium containing 10% FBS, 0.5 μM 2-ME or 20% FBS, 55 μM 2-ME, and 1% L-Glutamine respectively.
# Cells were seeded into 6-well plates with 5e6 cells per well. 200 μL of diluted compounds were added to cells to the final concentration of 0.003-10 μM. After 4 or 24 hour-incubation at 37° C., cells were collected into 2 mL Eppendorf tubes and centrifuged at 1,000 rpm for 5 min. The cell pellets were washed with 1×DPBS once and resuspended in 60 μL lysis buffer. The cells were lysed on ice for 10 min, then centrifuged at 14,000 rpm for 10 min at 4° C. and the supernatants were collected for western blots. For THP-1 cells, the lysis buffer contained 40 mM pH 7.4 HEPES, 140 mM NaCl, 2.5 mM EDTA, 1% NP-40, 0.1% SDS, and protease inhibitor cocktail (Roche, Cat. No. 05892791001). For OCI-LY10 cells, RIPAbuffer (Thermo Fisher, 89900) with Halt Protease and Phosphatase Inhibitor Cocktail (Thermo Fisher, 78446) was applied.
# The protein concentration of cell lysates was quantified with Pierce™ BCA Protein Assay Kit (Pierce, 23227). Albumin standards at different concentrations were prepared, involving 2,000 ug/mL, 1,500 ug/mL, 1,000 ug/mL, 750 ug/mL, 500 ug/mL, 250 ug/mL, 125 ug/mL, and 25 ug/mL. BCA working reagents were prepared by mixing BCA reagent A with reagent B in 50:1 ratio. 200 μL of the BCA working reagents were added to 25 μL of BCA standard or cell lysates in microplate, and mixed thoroughly on a plate shaker for 30 seconds. After incubation at 37° C. for 30 min, the absorbance of samples at 562 nm were measured with EnVision Plate Reader.
# Protein lysates were prepared in NuPAGE™ LDS sample buffer and NuPAGE™ sample reducing agent, and incubated at 95° C. for 5 min. For western blots, 20-25 μg of total proteins were resolved in 4-12% Bis-Tris gels (Introgen, WG1403A) or 10% Bis-Tris Midi gels (Invitrogen, WG1202BOX) running with 1×MOPS SDS running buffer (Invitrogen, NP0001) or 1×MES SDS running buffer (Invitrogen, NP0002). The proteins were transferred to low fluorescence PVDF membranes using the Trans-Blot Turbo Transfer System. Membranes were then blocked in Odyssey blocking buffer at RT for 1 h followed by primary incubation at 4° C. overnight. The primary antibodies were IRAK1 rabbit monoclonal antibody (CST, #4504S, 1:500), IRAK3 rabbit polyclonal antibody (CST, #4369, 1:500), IRAK4 rabbit polyclonal antibody (CST, #4363S, 1:1,000), MyD88 rabbit monoclonal antibody (Abcam, Ab133739, 1:2,000), j3-actin mouse monoclonal antibody (Sigma, A5441, 10,000), and Gapdh mouse monoclonal antibody (Millipore, MAB374, 1:5,000). Membranes were washed three times with 1×TBST, and then incubated with IR Dye 800 CW Goat anti-rabbit (Licor, #926-32211) and IR Dye 700 CW Goat anti-mouse (Licor, #926-68070) secondary antibodies in 1:10,000 dilution at RT for 1 h. The western blot images were obtained using Odyssey Imaging System.
# OCI-LY-10 results at 4 hours. The letter codes indicate the percentage of IRAK4 degraded after 4 hours: A (>50% degradation), B (>20-50% degradation) and C (<20% degradation)
# OCI-LY-10 results at 4 hours. The letter codes for % IRAK4 degradation indicate the percentage of IRAK4 degraded after 4 hours across three different concentrations: A (>50% degradation), B (>20-50% degradation) and C (<20% degradation).
SMILES,OCI-LY10 % IRAK4 Degradation,OCI-LY10 % IRAK4 Degradation (0.01 uM),OCI-LY10 % IRAK4 Degradation (0.1 uM),OCI-LY10 % IRAK4 Degradation (1 uM)
CC(C)(OCCOCCOCCOCCNc1cccc2c1C(=O)N(C1CCC(=O)NC1=O)C2=O)C(F)CNC(=O)c1cnc(-n2ncc3cc(C#N)cnc32)cc1NC1CC1 (stereo not shown) [I-73],C (<20% degradation),–,–,–
Cn1c(=O)n(C2CCC(=O)NC2=O)c2cccc(CCCOCCOCCNCc3ccc(-n4cc(NC(=O)c5coc(-c6ccnc(NCC(F)(F)F)c6)n5)c(C(N)=O)n4)cc3)c21 (stereo not shown) [I-328],–,A (>50% degradation),A (>50% degradation),A (>50% degradation)
"CN(CCOCCOCCNc1cccc2c1C(=O)N(C1CCC(=O)NC1=O)C2=O)C(=O)[C@H]1CC[C@H](NC(=O)c2cnc(-n3ncc4cc(C#N)cnc43)cc2NC2CC2)CC1 (stereo partly shown) [I-42, 6-(5-cyano-1H-pyrazolo[3,4-b]pyridin-1-yl)-4-(cyclopropylamino)-N-((1r,4r)-4-((2-(2-(2-((2-(2,6-dioxopiperidin-3-yl)-1,3-dioxoisoindolin-4-yl)amino)ethoxy)ethoxy)ethyl) (methyl)carbamoyl)cyclohexyl)nicotinamide]",C (<20% degradation),–,–,–
N#Cc1cnc2c(cnn2-c2cc(NC3CC3)c(C(=O)NCC(F)COCCOCCNc3cccc4c3C(=O)N(C3CCC(=O)NC3=O)C4=O)cn2)c1 (stereo not shown) [I-76],C (<20% degradation),–,–,–
NC(=O)c1nn(-c2ccc(CNCCCc3cccc4c3C(=O)N(C3CCC(=O)NC3=O)C4=O)cc2)cc1NC(=O)c1coc(-c2ccncc2)n1 (stereo not shown) [I-358],–,C (<20% degradation),C (<20% degradation),C (<20% degradation)
"Cc1ncsc1-c1ccc(CNC(=O)[C@@H]2C[C@@H](O)CN2C(=O)[C@@H](NC(=O)COCCOCCOCCOCCOCCN2CCN([C@H]3CC[C@H](Oc4ncnc5sc6c(c45)[C@@H](C[C@H](O)C(N)=O)CC6)CC3)CC2)C(C)(C)C)cc1 [I-124, (2S,4R)-1-[(2S)-2-[[2-[2-[2-[2-[2-[2-[4-[4-[[(8R)-8-[(2S)-3-amino-2-hydroxy-3-oxo-propyl]-7,8-dihydro-6H-cyclopenta[4,5]thieno[1,2-c]pyrimidin-1-yl]oxy]cyclohexyl]piperazin-1-yl]ethoxy]ethoxy]ethoxy]ethoxy]ethoxy]acetyl]amino]-3,3-dimethyl-butanoyl]-4-hydroxy-N-[[4-(4-methylthiazol-5-yl)phenyl]methyl]pyrrolidine-2-carboxamide]",C (<20% degradation),–,–,–
CC(C)(OCCNc1cccc2c1C(=O)N(C1CCC(=O)NC1=O)C2=O)C(F)CNC(=O)c1cnc(-n2ncc3cc(C#N)cnc32)cc1NC1CC1 (stereo not shown) [I-75],C (<20% degradation),–,–,–
"Cc1ncsc1-c1ccc(CNC(=O)C2C[C@@H](O)CN2C(=O)[C@@H](NC(=O)COCCOCCOCCOCCOC(C)(C)C(F)CNC(=O)c2cnc(-n3ncc4cc(C#N)cnc43)cc2NC2CC2)C(C)(C)C)cc1 (stereo partly drawn) [I-118, 6-(5-Cyanopyrazolo[3,4-b]pyridin-1-yl)-4-(cyclopropylamino)-N-[2-fluoro-3-[2-[2-[2-[2-[2-[[(1S)-1-[(4R)-4-hydroxy-2-[[4-(4-methylthiazol-5-yl)phenyl]methylcarbamoyl]pyrrolidine-1-carbonyl]-2,2-dimethyl-propyl]amino]-2-oxo-ethoxy]ethoxy]ethoxy]ethoxy]ethoxy]-3-methyl-butyl]pyridine-3-carboxamide]",C (<20% degradation),–,–,–
CC(OCCOCCNc1cccc2c1C(=O)N(C1CCC(=O)NC1=O)C2=O)C(F)CNC(=O)c1cnc(Nc2ccc3cnccc3n2)cc1NC1CC1 (stereo not shown) [I-84],C (<20% degradation),–,–,–
N#Cc1cnc2c(cnn2-c2cc(NC3CC3)c(C(=O)N[C@H]3CC[C@H](COCCOCCOCCNc4cccc5c4C(=O)N(C4CCC(=O)NC4=O)C5=O)CC3)cn2)c1 (stereo partly shown) [I-32],C (<20% degradation),–,–,–
NC(=O)c1nn(-c2ccc(CNCCOCCOCCOCCOCC#Cc3cccc4c3C(=O)N(C3CCC(=O)NC3=O)C4=O)cc2)cc1NC(=O)c1coc(-c2ccnc(NCC(F)(F)F)c2)n1 (stereo not shown) [I-323],–,B (>20-50% degradation),A (>50% degradation),A (>50% degradation)
NC(=O)c1nn(-c2ccc(CNCCOCCOCCCc3cccc4c3CN(C3CCC(=O)NC3=O)C4=O)cc2)cc1NC(=O)c1coc(-c2ccnc(NCC3CC3)c2)n1 (stereo not shown) [I-324],–,B (>20-50% degradation),A (>50% degradation),B (>20-50% degradation)
"Cc1ncsc1-c1ccc(CNC(=O)[C@@H]2C[C@@H](O)CN2C(=O)[C@@H](NCCCCCOCCOCCCCCNC(=O)c2ccc(-n3cc(NC(=O)c4coc(-c5ccnc(NCC(F)(F)F)c5)n4)c(C(N)=O)n3)cc2)C(C)(C)C)cc1 [I-188, N-(3-carbamoyl-1-(4-((5-(2-((5-(((S)-1-((2S,4R)-4-hydroxy-2-((4-(4-methylthiazol-5-yl)benzyl)carbamoyl)pyrrolidin-1-yl)-3,3-dimethyl-1-oxobutan-2-yl)amino)pentyl)oxy)ethoxy)pentyl)carbamoyl)phenyl)-1H-pyrazol-4-yl)-2-(2-((2,2,2-trifluoroethyl)amino)pyridin-4-yl)oxazole-4-carboxamide]",C (<20% degradation),–,–,–
NC(=O)c1nn(-c2ccc(C(=O)NCCOCCOCCCc3cccc4c3C(=O)N(C3CCC(=O)NC3=O)C4=O)cc2)cc1NC(=O)c1coc(-c2ccnc(NCC(F)(F)F)c2)n1 (stereo not shown) [I-233],–,C (<20% degradation),A (>50% degradation),A (>50% degradation)
NC(=O)c1nn(-c2ccc(C(=O)NCCOCCOCCOCCOCCCc3ccc4c(c3)C(=O)N(C3CCC(=O)NC3=O)C4=O)cc2)cc1NC(=O)c1coc(-c2ccnc(NCC(F)(F)F)c2)n1 (stereo not shown) [I-148],B (>20-50% degradation),–,–,–
O=C1CCC(N2C(=O)c3cccc(NCCOCCNC(=O)c4ccc(-n5cc(NC(=O)c6coc(-c7ccnc(NCC8CC8)c7)n6)c(C(F)F)n5)cc4)c3C2=O)C(=O)N1 (stereo not shown) [I-211],–,B (>20-50% degradation),B (>20-50% degradation),B (>20-50% degradation)
